Read-outs that look alike come from different tables or passages of the source.
Experiments:
[1] = system: naturally aged C57BL6J mice; experiment: Skin aging (dermal thickness, COL1A1 and SDF1 mRNA, hair loss) in naturally aged mice, Example 21-10, Table 25; type: in vivo, mouse; conditions: for Dermal Thickness (μm): mouse, in vivo
Method: (§1) 22-month-old female C57BL6J mice (KRIBB Laboratory Animal Resource Center) were acclimated to the experimental environment for one week, after which the aged mice were randomly assigned to experimental and control groups. Eight-week-old, non-aged mice served as controls. LX-403 was mixed in a 10% ethanol solution of PEG400 and administered orally at a concentration of 25 mg/kg daily for 21 days, or administered to the skin, joints, or eyes at a concentration of 1 μM. LX-1801 was mixed in distilled water with 4% DMSO, 30% PEG300, and 5% Tween80 and administered to the skin, joints, or eyes at a concentration of 0.4 μM daily for 21 days. LX-2001 was mixed in PBS and administered to the skin, joints, or eyes at a concentration of […] daily for 21 days. LX-2002 was mixed in distilled water with 4% DMSO, 30% PEG300, and 5% Tween80 and administered to the skin, joints, or eyes at a concentration of 2 μM daily for 21 days. […] LX-2005 was mixed in distilled water with 4% DMSO, 30% PEG300, and 5% Tween80 and administered to the skin, joints, or eyes at a concentration of 90 μM daily for 21 days. LX-2007 was mixed in distilled water with 4% DMSO, 30% PEG300, and 5% Tween80 and administered to the skin, joints, or eyes at a concentration of 90 μM daily for 21 days. […] LX-3002 was mixed in distilled water with 4% DMSO, 30% PEG300, and 5% Tween80 and administered orally at a concentration of 10 mg/kg daily for 21 days. […] LX-5411 was mixed in 5% PBS and administered orally at a concentration of 10 mg/kg daily for 21 days or administered to the skin, joints, or eyes at a concentration of 3 μM. LX-5701 was mixed in PBS and administered orally at a concentration of 360 mg/kg daily for 21 days. LX-6807 was mixed in saline and administered intraperitoneally at a concentration of 1 mg/kg daily for 21 days. LX-2101 or LX-2102 was mixed in PBS solution with 5% DMSO and administered intraperitoneally at a concentration of 20 mg/kg or 10 mg/kg, respectively, daily for 21 days. The control group received only the solution in the same volume. After the end of drug administration, the methods described in each example below were performed.
Frozen sections of skin tissue were stained with Hematoxylin/Eosin (H/E), and the dermal thickness was observed under an optical microscope. Furthermore, the mRNA levels of collagen (COL1A1), a skin component, and SDF1, which suppresses age-related pigmentation, were measured using qRT-PCR as described in Example 7-2 of WO2023-085787 A1. […] Furthermore, biweekly examinations were performed to assess the onset of hair loss due to aging.

[2] = system: NaIO3-induced retinal degenerative C57BL6J mice; experiment: NaIO3 retinal degeneration in mice (p16 mRNA, outer nuclear layer thickness), Example 29, Table 53; type: in vivo, mouse; conditions: daily for 21 days; for Outer nuclear layer thickness: untreated 27.4 (±1.3); for p16 mRNA: untreated 100%
Method: Then, retinal degenerative diseases were induced for more than 7 days by intravenous administration of 20 mg/kg of NaIO3, an oxidizing agent that induces retinal pigment epithelial cell death and retinal degeneration. Mice with retinal degenerative diseases were randomly assigned to experimental and control groups. […] The control group received only the solution in the same volume. […] In addition, frozen sections of the other eye tissue were stained with H/E (Hematoxylin/Eosin), and the thickness of the outer nuclear layer (ORL) was observed under an optical microscope. […] The mRNA amount after aging induction was calculated as 100% and compared with the mRNA amount of p16 after treatment with the test compound.

[3] = system: HMGN1 secreted from senescent A549 cells; experiment: HMGN1 secretion (ELISA) from senescent A549 cancer cells, Example 12; type: cell-based, human; conditions: senescent untreated = 100%; 30 μM; 90 μM for LX-305, 905, 1302, 1601, 1603, 2003, 2702, 2901, 3106; 270 μM for LX-1103, 2005, 2007;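 further: A549 cells made senescent by doxorubicin exposure, with DMSO-treated cells serving as the non-senescent control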
Method: Cells were treated with doxorubicin or control (DMSO) and cultured.

[4] = system: naturally aged C57BL6J mice; type: in vivo, mouse
[5] = system: naturally aged C57BL6J mice; experiment: Cataract incidence in naturally aged mice, Example 21-15, Table 30; type: in vivo, mouse; conditions: orally twice a week, 360 mg/kg, until death, untreated aged 83
Method: as §1
Cataracts, which occur with age, are a disease that causes visual impairment due to clouding of the lens and are a major cause of blindness. The mice of Example 21-1 were treated with the test compound mixed in PBS orally twice a week at a concentration of 360 mg/kg. Cataract development was assessed biweekly until death.

[6] = system: naturally aged C57BL6J mice; experiment: Hot plate joint pain test in naturally aged mice, Example 21-12, Table 27; type: in vivo, mouse; conditions: hot plate 55° C., untreated aged 6.9 (±1.8)
Method: as §1
RNA was extracted from joint tissue as described in Example 7-2 of WO2023-085787 A1, and qRT-PCR was performed using the synthesized cDNA. […] To analyze joint pain due to joint aging, hotplate analysis was performed. Specifically, thermal pain thresholds were measured using a hot plate. After acclimating mice to a temperature of 30° C. for 10 minutes, the time required for hind paw licking or jumping responses to occur at 55° C. was measured. To prevent tissue damage, the response was measured for less than 30 seconds, and the average value was used from five measurements.

[7] = system: senescent foreskin cells; experiment: Survival of senescent human cells treated with supernatant (secreted fluid) from death-induced cells, Example 13; type: cell-based; conditions: senescent treated cells; for viability at 30 µM: Homo sapiens, 72 h
[8] = naturally aged mice, untreated aged = 100
[9] = skin, naturally aged mice, untreated aged = 1
[10] = after 7 days, 6 mm punch dorsal skin wounds, naturally aged mice, untreated aged 3.2 (±0.4)
[11] = Table 8, supernatant from dying senescent cells treated at 30, 90 or 270 μM (as Example 11)

Row | Compound | Dermal Thickness (μm) [1] | Relative area of hair loss (%) [1, 8] | Col1a1 mRNA (Fold) [1, 9] | SDF1 mRNA (fold) [1, 9] | Outer nuclear layer thickness [2] | p16 mRNA [2] | HMGN1 [3] | Wound size (mm) [4, 10] | Cataract incidence (%) [5] | Response time (s) [6] | Survival [7, 11] | viability at 30 µM ([7]; supernatant from death-induced proliferating cells, 3 days) | viability at 30 µM ([7]; supernatant from death-induced senescent cells, 3 days) | Survival ([7]; supernatant from No Cells, 3 days) | Col1a1 mRNA (Fold) ([1]; topical) | Relative area of hair loss (%) ([1]; topical) | SDF1 mRNA (fold) ([1]; topical) | wound/damage healing improvement ([4]; mouse, in vivo) | Wound size (mm) ([4]; mouse, in vivo)
1 | O=C(C(C[N+](=O)[O-])=NO)N1CCN(C(c2ccc(Cl)cc2)c2ccc(Cl)cc2)CC1 [LX-403] | 232 (±16.2) μm | 69 (±2.5) % | 2.4 (±0.2) Fold | 1.8 (±0.1) fold | 40.1 (±1.9) μm | 34 (±2.2) % | 320% | 1.9 (±0.2) mm | 57% | 5.6 (±0.7) s | 45.1 | – | – | – | – | – | – | – | –
2 | COC(=O)c1ccc([C@H]2c3[nH]c4ccccc4c3C[C@H](C(=O)OC)N2C(=O)CCl)cc1 [LX-405] | – | – | – | – | – | – | 310% | – | – | – | – | 41.3% | 52.7% | 102.8 (±4.6) % | – | – | – | – | –
3 | S=C(N/N=C1\CCCc2cccnc21)N1CCN(c2ccccn2)CC1 [LX-801] | – | – | – | – | – | – | 329% | – | – | – | 52.7 | – | – | – | – | – | – | – | –
4 | C[C@@H]1CC[C@@]23C[C@H](O)C(=O)[C@@]2(O)[C@]1(C)[C@H](OC(=O)CCl)C[C@@H](C1=CCn2c(=O)n(-c4ccccc4)c(=O)n2C1)[C@@H]3C [LX-1801, (2S,3aS,4S,5R,7R,8S,8aS,11R)-7-(1,3-Dioxo-2-phenyl-2,3,5,8-tetrahydro-1H-[1,2,4]triazolo[1,2-a]pyridazin-6-yl)-2,3a-dihydroxy-4,8,11-trimethyl-3-oxooctahydro-1H-4,8a-propanoazulen-5-yl 2-Chloroacetate] | 222 (±37.4) μm | 82 (±6.6) % | 2.0 (±0.2) Fold | 2.1 (±0.2) fold | 32.7 (±2.6) μm | 42 (±4.4) % | 295% | 2.5 (±0.6) mm | 68% | 4.9 (±1.1) s | 41.6 | – | – | – | – | – | – | – | –
5 | C[C@H]1[C@H](C)CC[C@]2(C(=O)O)CC[C@]3(C)C(=CC[C@@H]4[C@@]5(C)CC[C@H](O)C(C)(C)[C@@H]5CC[C@]43C)[C@H]12 [LX-2001, Ursolic acid] | 241 (±46.6) μm | 73 (±8.3) % | 2.2 (±0.4) Fold | 1.6 (±0.2) fold | 34.1 (±5.1) μm | 61 (±4.1) % | 328% | 2.5 (±0.5) mm | 75% | 5.0 (±0.9) s | 57.8 | – | – | – | – | – | – | – | –
6 | C[C@H]1[C@H](C)CC[C@]2(C(=O)O)CC[C@]3(C)C(=CC[C@@H]4[C@@]5(C)C[C@@H](O)[C@H](O)C(C)(C)[C@@H]5CC[C@]43C)[C@H]12 [LX-2002, Corosolic acid] | 253 (±40.1) μm | 75 (±8.3) % | 1.9 (±0.3) Fold | 1.4 (±0.1) fold | 30.1 (±7.8) μm | 60 (±3.8) % | 314% | 2.7 (±0.4) mm | 71% | 5.3 (±0.6) s | 58.3 | – | – | – | – | – | – | – | –
7 | CC1(C)CC[C@]2(C(=O)O)CC[C@]3(C)C(=CC[C@@H]4[C@@]5(C)CC[C@H](O)C(C)(C)[C@@H]5CC[C@]43C)[C@@H]2C1 [LX-2003, Oleanolic acid] | 235 (±56.3) μm | 71 (±2.2) % | 2.3 (±0.4) Fold | 1.7 (±0.1) fold | 31.2 (±8.7) μm | 52 (±6.3) % | 218% | 2.6 (±0.6) mm | 69% | 5.1 (±0.7) s | 64.2 | – | – | – | – | – | – | – | –
8 | COC(=O)[C@]12CCC(C)(C)C[C@H]1[C@H]1C(=O)C=C3[C@@]4(C)C=C(C#N)C(=O)C(C)(C)[C@@H]4CC[C@@]3(C)[C@]1(C)CC2 [LX-2102, Bardoxolone methyl] | 234 (±9.6) μm | – | – | – | – | – | 233% | – | – | – | 46.3 | – | – | – | 2.0 (±0.2) Fold | 89 (±7.5) % | 1.3 (±0.1) fold | damage treatment and recovery | –
9 | CCCC\C=C/C=C/C=C\CCCCCCCC(=O)O [LX-2707, Punicic acid] | 237 (±19.4) μm | – | – | – | 31.8 (±1.7) μm | 76 (±5.4) % | – | 2.7 (±0.3) mm | 48% | 5.4 (±0.6) s | – | – | – | – | – | – | – | – | –
10 | COC(=O)[C@H]1Cc2c([nH]c3ccccc23)[C@H](c2ccc(S(C)(=O)=O)cc2)N1C(=O)CCl [LX-5401, methyl (1S,3R)-2-(2-chloroacetyl)-1-(4-(methylsulfonyl)phenyl)-2,3,4,9-tetrahydro-1H-pyrido[3,4-b]indole-3-carboxylate] | 222 (±26.3) μm | – | – | – | – | – | – | 2.3 (±0.3) mm | 69% | 5.9 (±0.2) s | – | – | – | – | – | – | – | – | –
11 | C#CC(=O)N1[C@@H](CCCC)Cc2cc(OC)ccc2[C@@H]1c1ccc(NC23CC4CC(CC(C4)C2)C3)cc1 [LX-5411] | 231 (±27.1) μm | 64 (±4.8) % | 2.7 (±0.1) Fold | 2.3 (±0.2) fold | 43.7 (±4.2) μm | 43 (±2.5) % | – | 1.6 (±0.1) mm | 61% | 4.7 (±0.4) s | – | – | – | – | – | – | – | – | –
12 | O=C1C2CCN(CC2)C1CNC(=O)C(F)(F)F (stereo not drawn) [LX-5701] | 239 (±16.4) μm | 71 (±8.4) % | 1.9 (±0.1) Fold | 1.7 (±0.3) fold | 52.7 (±3.2) μm | 67 (±7.3) % | – | – | 64% | 4.6 (±1.3) s | – | – | – | – | – | – | – | – | 1.9 (±0.2) mm
13 | Cc1cccc([C@H](C)c2cnc[nH]2)c1C [LX-6807, Dexmedetomidine] | 267 (±22.4) μm | 72 (±3.8) % | 3.2 (±0.2) Fold | 2.1 (±0.2) fold | 50.8 (±3.2) μm | 64 (±4.4) % | – | 1.7 (±0.1) mm | 61% | 4.8 (±0.4) s | – | – | – | – | – | – | – | – | –

Source: patent US20260306460A1, “COMPOSITION FOR REMOVING AND INHIBITING SENESCENT CELLS, AND USES THEREOF” (LIFECEUTIX CO., LTD., priority 2023, published 2026)
